Source: patent publication US9453253B2, “Methods of using isotopically labelled isoniazid for the diagnosis of mycobacterial infections” (priority 2012, dated 2016)

Tests used:
[1] = tested on: Mycobacterium tuberculosis H37Rv; format: cell-based; conditions: M. tuberculosis H37Rv, 1 mg/mL, 1 hour, head gas, control subtracted
[2] = tested on: M. bovis BCG; format: cell-based

[15NH2][15NH]C(=O)c1ccncc1 [^15N2-hydrazyl-INH]
30/28 mass signal in nitrogen gas, dependency on CFU [1]: proportional to CFU/mL | 30/28 mass signal in nitrogen gas, dependency on CFU [2]: proportional to CFU/mL | 30/28 mass signal in nitrogen gas, dose dependence [2]: dependent upon dose | 30/28 mass signal in nitrogen gas, time dependence [2]: increase in the signal over the course of an hour, which then begins to decrease by 4 hours
